For the assay, the target named is 5-hydroxytryptamine receptor 6 (Homo sapiens, UniProt P50406). Put plainly: Displacement of [3H]LSD from human 5HT6 receptor expressed in HEK293 cells. The assay is classed as cell-based. Background: Loss of bound radioactivity is the signal in a displacement assay; it reports binding, not function.
5-hydroxytryptamine receptor 6, sequence (P50406 whole entry): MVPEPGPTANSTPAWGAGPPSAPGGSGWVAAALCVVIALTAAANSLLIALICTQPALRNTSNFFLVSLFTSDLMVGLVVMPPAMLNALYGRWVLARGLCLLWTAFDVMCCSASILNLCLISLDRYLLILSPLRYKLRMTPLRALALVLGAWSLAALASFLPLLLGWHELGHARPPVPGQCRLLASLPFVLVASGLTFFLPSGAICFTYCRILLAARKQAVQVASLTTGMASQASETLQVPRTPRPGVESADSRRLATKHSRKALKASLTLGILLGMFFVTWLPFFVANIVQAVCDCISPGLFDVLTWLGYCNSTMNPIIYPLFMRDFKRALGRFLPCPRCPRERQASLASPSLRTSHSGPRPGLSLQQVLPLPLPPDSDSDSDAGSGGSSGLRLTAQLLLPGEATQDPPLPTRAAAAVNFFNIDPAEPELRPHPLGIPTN

Turning to `CNc1cc(NC)c2ccn(S(=O)(=O)c3ccc(N)cc3)c2c1`, affinity was put at a Ki of 1.9 nM.

Consider `c1cc(N2CCNCC2)c2cc[nH]c2c1`, for which the Ki (usually the equilibrium dissociation constant of an inhibitor or competing ligand from its target) is 2700 nM.

`CNc1ccc2ccn(S(=O)(=O)c3ccc(N)cc3)c2c1` came in with a Ki of 7 nM.

For the compound `Nc1ccc(S(=O)(=O)n2ccc3ccccc32)cc1`, the affinity corresponds to a Ki of 10 nM.

`Nc1ccc(S(=O)(=O)n2ccc3c([N+](=O)[O-])cc([N+](=O)[O-])cc32)cc1` showed a Ki of 980 nM.

Compound `Nc1ccc(S(=O)(=O)n2ccc3c(N4CCNCC4)cccc32)cc1` had a Ki of 0.4 nM.

The compound `CNc1cc(NC)c2ccn(S(=O)(=O)c3ccccc3)c2c1` had a Ki of 26 nM.

The compound `CNc1cccc2c1ccn2S(=O)(=O)c1ccc(N)cc1` came in with a Ki of 21 nM.

These data come from ChEMBL document CHEMBL1141871, “Binding of amine-substituted N1-benzenesulfonylindoles at human 5-HT6 serotonin receptors” (Bioorg Med Chem Lett, 2005).
